Reference: PMC4710095 (Journal of medicinal chemistry, 2012)

Key:
TcFPPS = TcFPPS enzymatic activity; IC50 were calculated before; cited from earlier work
[1] = target: T1, TcFPPS (Trypanosoma cruzi farnesyl diphosphate synthase) (Trypanosoma cruzi, UniProt Q8WS26); assay: Isothermal titration calorimetry of bisphosphonate binding to TcFPPS; settings: ITC, 28 °C; for ΔG / ΔH / ΔS: single binding site per monomer
T1 sequence (Q8WS26 64-425): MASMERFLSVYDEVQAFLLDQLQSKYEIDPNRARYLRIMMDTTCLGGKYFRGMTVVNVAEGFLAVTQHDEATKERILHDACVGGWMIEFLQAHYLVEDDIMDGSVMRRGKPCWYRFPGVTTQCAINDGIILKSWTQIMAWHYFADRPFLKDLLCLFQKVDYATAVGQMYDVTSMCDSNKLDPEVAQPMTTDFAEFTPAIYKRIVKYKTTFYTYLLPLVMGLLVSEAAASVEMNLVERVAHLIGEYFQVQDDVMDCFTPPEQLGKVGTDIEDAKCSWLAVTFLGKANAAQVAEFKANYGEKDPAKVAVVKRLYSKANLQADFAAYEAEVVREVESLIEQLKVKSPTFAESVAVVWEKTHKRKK

T. cruzi = settings: in vivo assays; cited from earlier work

Structure (SMILES) | IC50 (TcFPPS) [nM] | ΔG [1] [kcal/mol] | ΔH [1] [kcal/mol] | ΔS [1] [cal/mol/K] | ΔH, 2-site model, first value ([1]; values calculated using 2-site model (two different sites per dimer), first site) [kcal/mol] | ΔH, 2-site model, second value ([1]; values calculated using 2-site model (two different sites per dimer), second site) [kcal/mol] | survival of T. cruzi-infected mice (T. cruzi) | unfavorable binding enthalpy, excess over the other inhibitors ([1]; compared with the other n-alkyl inhibitors) [kcal/mol]
CCCCCNCC(P(=O)(O)O)P(=O)(O)O [Compound 11, [2-(n-pentylamino)ethane-1,1-diyl]bisphosphonic acid] | 1840 | -8.15 | 5.22 ± 0.11 | 44.7 |  |  |  | 
CCCCCCCNCC(P(=O)(O)O)P(=O)(O)O [Compound 13, [2-(n-heptylamino)ethane-1,1-diyl]bisphosphonic acid] | 58 | -9.88 | 5.65 ± 0.09 | 51.9 | 6.39 ± 0.36 | 4.62 ± 0.44 |  | 
O=P(O)(O)C(O)(Cc1cccnc1)P(=O)(O)O [risedronate] |  |  |  |  |  |  | significantly increase survival | 
CCCCCCNCC(P(=O)(O)O)P(=O)(O)O [Compound 12, [2-(n-hexylamino)ethane-1,1-diyl]bisphosphonic acid] | 490 | -8.72 | 7.87 ± 0.11 | 55.4 |  |  |  | 1.5 to 2.0
CCCNCC(P(=O)(O)O)P(=O)(O)O [Compound 10, [2-(n-propylamino)ethane-1,1-diyl]bisphosphonic acid] | 38 | -10.43 | 6.35 ± 0.07 | 56.1 |  |  |  | 
O=P(O)(O)C(CNC1CCCCC1)P(=O)(O)O [Compound 14, [2-(cyclohexylamino)ethane-1,1-diyl]bisphosphonic acid] | 13 |  |  |  |  |  |  | 
